Ki data for 7 compounds are collected here from ChEMBL document CHEMBL1155782 (Bioorg Med Chem, 2008).

As a reminder, the Ki is a measure of affinity in units of concentration, obtained from inhibition or displacement.

Test [1] deals with Carbonic anhydrase 5A, mitochondrial (Homo sapiens, UniProt P35218).
Description: Inhibition of human carbonic anhydrase 5A by stopped-flow CO2 hydration assay
Test [2] concerns the target Carbonic anhydrase 12 (Homo sapiens, UniProt O43570).
Description: Inhibition of human carbonic anhydrase 12 catalytic domain by stopped-flow CO2 hydration assay
Test [3] addresses Carbonic anhydrase 3 (Homo sapiens, UniProt P07451).
Description: Inhibition of human carbonic anhydrase 3 by stopped-flow CO2 hydration assay
Test [4] concerns the target Carbonic anhydrase 14 (Homo sapiens, UniProt Q9ULX7).
Description: Inhibition of human carbonic anhydrase 14 by stopped-flow CO2 hydration assay
In test [5] the target is Carbonic anhydrase 7 (Homo sapiens, UniProt P43166).
Description: Inhibition of human carbonic anhydrase 7 by stopped-flow CO2 hydration assay
Test [6] has as its target Carbonic anhydrase 6 (Homo sapiens, UniProt P23280).
Description: Inhibition of human carbonic anhydrase 6 by stopped-flow CO2 hydration assay
The target of test [7] is Carbonic anhydrase 13 (Mus musculus, UniProt Q9D6N1).
Description: Inhibition of mouse carbonic anhydrase 13 by stopped-flow CO2 hydration assay
In test [8] the target is Carbonic anhydrase 4 (Homo sapiens, UniProt P22748).
Description: Inhibition of human carbonic anhydrase 4 by stopped-flow CO2 hydration assay
For test [9], the target named is Carbonic anhydrase 5B, mitochondrial (Homo sapiens, UniProt Q9Y2D0).
Description: Inhibition of human carbonic anhydrase 5B by stopped-flow CO2 hydration assay
The target of test [10] is Carbonic anhydrase 9 (Homo sapiens, UniProt Q16790).
Description: Inhibition of human carbonic anhydrase 9 catalytic domain by stopped-flow CO2 hydration assay

Chain of Carbonic anhydrase 6 (P23280 whole entry): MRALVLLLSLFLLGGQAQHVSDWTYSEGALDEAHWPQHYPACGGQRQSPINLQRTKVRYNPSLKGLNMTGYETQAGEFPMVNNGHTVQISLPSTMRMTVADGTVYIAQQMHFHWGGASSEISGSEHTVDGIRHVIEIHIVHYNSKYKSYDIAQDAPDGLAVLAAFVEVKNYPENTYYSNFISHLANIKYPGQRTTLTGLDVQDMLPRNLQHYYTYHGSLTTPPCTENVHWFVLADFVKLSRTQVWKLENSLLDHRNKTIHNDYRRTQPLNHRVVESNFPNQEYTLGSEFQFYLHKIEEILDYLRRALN
Chain of Carbonic anhydrase 5B, mitochondrial (Q9Y2D0 whole entry): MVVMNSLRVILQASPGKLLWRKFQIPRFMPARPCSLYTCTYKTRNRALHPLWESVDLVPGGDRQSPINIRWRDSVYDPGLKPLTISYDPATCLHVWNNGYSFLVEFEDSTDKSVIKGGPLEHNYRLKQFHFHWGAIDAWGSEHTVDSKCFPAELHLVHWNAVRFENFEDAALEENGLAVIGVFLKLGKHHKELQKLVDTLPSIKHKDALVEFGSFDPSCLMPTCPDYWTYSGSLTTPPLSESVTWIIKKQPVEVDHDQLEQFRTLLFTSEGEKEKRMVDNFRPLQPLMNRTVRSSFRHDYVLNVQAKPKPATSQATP
Chain of Carbonic anhydrase 13 (Q9D6N1 whole entry): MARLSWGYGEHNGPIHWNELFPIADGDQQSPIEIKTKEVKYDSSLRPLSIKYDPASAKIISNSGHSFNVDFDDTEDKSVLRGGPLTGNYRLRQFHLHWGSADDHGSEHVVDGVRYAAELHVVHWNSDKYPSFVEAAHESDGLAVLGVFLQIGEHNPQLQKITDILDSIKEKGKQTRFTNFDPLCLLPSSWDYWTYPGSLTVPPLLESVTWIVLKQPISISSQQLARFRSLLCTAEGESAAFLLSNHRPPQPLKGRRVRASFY
Chain of Carbonic anhydrase 12 (O43570 whole entry): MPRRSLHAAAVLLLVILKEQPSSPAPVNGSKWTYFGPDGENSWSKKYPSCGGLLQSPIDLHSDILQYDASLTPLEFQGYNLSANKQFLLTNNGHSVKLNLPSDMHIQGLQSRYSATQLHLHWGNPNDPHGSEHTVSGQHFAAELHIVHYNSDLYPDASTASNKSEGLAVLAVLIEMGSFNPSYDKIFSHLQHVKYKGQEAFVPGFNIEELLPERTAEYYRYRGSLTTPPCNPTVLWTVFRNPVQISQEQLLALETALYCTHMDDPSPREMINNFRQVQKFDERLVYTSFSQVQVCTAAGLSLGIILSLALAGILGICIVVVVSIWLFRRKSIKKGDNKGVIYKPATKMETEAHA
Chain of Carbonic anhydrase 7 (P43166 whole entry): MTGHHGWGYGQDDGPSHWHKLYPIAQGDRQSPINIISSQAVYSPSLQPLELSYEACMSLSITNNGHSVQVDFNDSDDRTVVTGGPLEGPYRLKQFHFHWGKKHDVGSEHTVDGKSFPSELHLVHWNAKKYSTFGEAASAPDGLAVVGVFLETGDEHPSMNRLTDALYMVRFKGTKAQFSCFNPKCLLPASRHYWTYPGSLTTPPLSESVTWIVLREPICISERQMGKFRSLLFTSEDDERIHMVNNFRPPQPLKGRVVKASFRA
Chain of Carbonic anhydrase 14 (Q9ULX7 whole entry): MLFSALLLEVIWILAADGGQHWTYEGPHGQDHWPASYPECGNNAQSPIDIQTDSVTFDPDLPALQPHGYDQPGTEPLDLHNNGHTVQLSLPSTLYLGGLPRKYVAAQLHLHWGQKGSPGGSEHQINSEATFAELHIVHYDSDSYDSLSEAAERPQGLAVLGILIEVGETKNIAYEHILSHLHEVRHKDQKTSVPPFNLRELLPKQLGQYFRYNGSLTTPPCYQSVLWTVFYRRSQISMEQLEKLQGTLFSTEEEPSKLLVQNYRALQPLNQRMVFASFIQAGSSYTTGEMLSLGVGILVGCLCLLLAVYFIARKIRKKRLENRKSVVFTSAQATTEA
Chain of Carbonic anhydrase 3 (P07451 whole entry): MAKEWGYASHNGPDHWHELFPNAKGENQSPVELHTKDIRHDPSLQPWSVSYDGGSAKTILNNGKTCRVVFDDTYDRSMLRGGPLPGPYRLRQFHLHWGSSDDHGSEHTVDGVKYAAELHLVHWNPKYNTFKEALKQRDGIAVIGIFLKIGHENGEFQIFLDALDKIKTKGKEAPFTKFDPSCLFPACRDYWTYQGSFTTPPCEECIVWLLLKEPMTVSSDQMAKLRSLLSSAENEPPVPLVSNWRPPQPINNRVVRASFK
Chain of Carbonic anhydrase 5A, mitochondrial (P35218 whole entry): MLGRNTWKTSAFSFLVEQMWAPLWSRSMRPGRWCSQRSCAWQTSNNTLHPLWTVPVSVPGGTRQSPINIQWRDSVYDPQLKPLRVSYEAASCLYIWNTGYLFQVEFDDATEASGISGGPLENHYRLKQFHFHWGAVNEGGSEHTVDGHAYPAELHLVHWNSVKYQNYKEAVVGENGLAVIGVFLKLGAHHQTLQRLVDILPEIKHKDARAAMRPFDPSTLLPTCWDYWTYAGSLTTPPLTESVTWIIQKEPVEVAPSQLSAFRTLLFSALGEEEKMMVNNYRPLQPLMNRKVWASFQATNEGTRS
Chain of Carbonic anhydrase 4 (P22748 whole entry): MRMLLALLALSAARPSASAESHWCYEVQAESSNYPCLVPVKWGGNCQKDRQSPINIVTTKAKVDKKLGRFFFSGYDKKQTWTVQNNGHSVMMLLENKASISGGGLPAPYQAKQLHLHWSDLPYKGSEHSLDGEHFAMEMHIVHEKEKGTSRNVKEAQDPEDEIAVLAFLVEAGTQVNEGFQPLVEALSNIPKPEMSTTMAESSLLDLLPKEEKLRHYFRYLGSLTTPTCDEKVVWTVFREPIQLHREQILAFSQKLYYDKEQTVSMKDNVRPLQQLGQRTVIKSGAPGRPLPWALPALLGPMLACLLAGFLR

With `Oc1cc(F)ccc1F`, the Ki was found to be 12 µM in test [1]; 598 µM in test [2]; 10.8 µM in test [3]; 34 µM in test [4]; 554 µM in [5]; 90.6 µM in test [6]. In addition, the Ki in [7] turned out to be 69.5 µM; in test [8], 426 µM; in [9], 51.2 µM; in [10], 68.7 µM.

For the compound `N#Cc1ccc(O)cc1` [4-CYANOPHENOL], the Ki in test [1] stood at 520 µM; in test [5], 777 µM; in test [7] it was 45 µM; in test [8] it was 634 µM; in test [9], 557 µM; in test [10] it was 56 µM.

With `CC(=O)Nc1ccc(O)cc1` [ACETAMINOPHEN], the Ki in [1] came to 802 µM; in test [2], 4.1 µM; in test [3] it was 7.1 µM; in test [4], 10.6 µM; in test [6], 658 µM; in test [7] it was 30.3 µM. Also, the Ki stood at 11.4 µM in test [8], 296 µM in test [9] and 70.7 µM in test [10].

Take `Oc1ccccc1O` [CATECHOL]: the Ki was 55.1 µM in test [1]; 8.9 µM in test [2]; 13 µM in test [3]; 48.9 µM in [4]; 714 µM in [5]; 606 µM in test [6]. Also, the Ki was determined as 12.2 µM in test [7], 4.2 µM in test [9] and 115 µM in test [10].

For the compound `Oc1ccc(O)cc1` [HYDROQUINONE], the Ki in test [1] worked out at 14.1 µM; in test [2] it was 7.8 µM; in [3] it was 8.2 µM; in test [4], 42 µM; in test [5], 883 µM; in [6], 521 µM. Further, the inhibition constant Ki came out at 74.3 µM in test [7], 12.5 µM in test [9] and 32.5 µM in test [10].

As for `O=C(O)c1ccc(O)cc1` [PARABEN], the inhibition constant Ki in [1] is 9.2 µM; in [2], 4.8 µM; in [3] it was 696 µM; in [4], 34.3 µM; in test [5] it was 716 µM; in test [6], 11.4 µM. For the same compound, the inhibition constant (Ki) was 86 µM in test [7], 809 µM in test [8] and 118 µM in [10].

Consider `Oc1cccc(O)c1` [RESORCINOL], for which the Ki is 8.7 µM in [1]; 7.5 µM in test [2]; 605 µM in [3]; 10.7 µM in test [4]; 644 µM in test [5]; 550 µM in test [6]. Also, the Ki is 62.6 µM in test [7], 570 µM in test [8], 7.1 µM in test [9] and 69.7 µM in [10].
